Read-outs that look alike come from different tables or passages of the source. Marks after values point to notes of the source that are not given here.
How the values were obtained:
HCT-116 cells [1] = experiment: Cell Titer-Glo cytotoxicity assay, HCT-116; type: cell-based; conditions: Homo sapiens
Description: (§1) Five serial 1:2 dilutions were made with anhydrous DMSO at 100× the final concentration used in the assay.

NCI-H460 cells [2] = experiment: Calcein AM cytotoxicity assay, NCI-H460; type: cell-based; conditions: Homo sapiens
Description: as §1

MCF7 cells [3] = experiment: Cell Titer-Glo cytotoxicity assay, MCF7; type: cell-based, human; conditions: Homo sapiens
Description: as §1

Du145 cells [4] = experiment: Cell Titer-Glo cytotoxicity assay, Du145; type: cell-based; conditions: Homo sapiens
Description: as §1

NCI/ADR RES cells [5] = experiment: Cell Titer-Glo cytotoxicity assay, NCI/ADR-RES; type: cell-based, human; conditions: Homo sapiens, NCI/ADR-RES, 72 h
Description: as §1

Hep3B cells [6] = experiment: Cell Titer-Glo cytotoxicity assay, Hep3B; type: cell-based; conditions: Homo sapiens, 72 h
Description: as §1

Hep3B cells [7] = experiment: Calcein AM cytotoxicity assay, Hep3B; type: cell-based; conditions: Homo sapiens, 72 h
Description: as §1

NCI-H460 cells [8] = experiment: Cell Titer-Glo cytotoxicity assay, NCI-H460; type: cell-based, human; conditions: Homo sapiens
Description: as §1

[9] = tested on: NmuMG mouse mammary normal epithelial cells; experiment: Calcein AM cytotoxicity assay, NmuMG; type: cell-based; conditions: Epithelial cell, 72 h
Description: as §1

SF-268 cells [10] = experiment: Calcein AM cytotoxicity assay, SF-268; type: cell-based; conditions: Homo sapiens
Description: as §1

Du145 cells [11] = experiment: Calcein AM cytotoxicity assay, Du145; type: cell-based; conditions: Homo sapiens
Description: as §1

SK-OV-3 cells [12] = experiment: Calcein AM cytotoxicity assay, SK-OV-3; type: cell-based; conditions: Homo sapiens
Description: as §1

SK-OV-3 cells [13] = experiment: Cell Titer-Glo cytotoxicity assay, SK-OV-3; type: cell-based; conditions: Homo sapiens
Description: as §1

MCF7 cells [14] = experiment: Calcein AM cytotoxicity assay, MCF7; type: cell-based; conditions: Homo sapiens
Description: as §1

[15] = tested on: NmuMG mouse mammary normal epithelial cells; experiment: Cell Titer-Glo cytotoxicity assay, NmuMG; type: cell-based; conditions: Mus musculus, Epithelial cell, 72 h
Description: as §1

SF-268 cells [16] = experiment: Cell Titer-Glo cytotoxicity assay, SF-268; type: cell-based; conditions: Homo sapiens
Description: as §1

human cancer cell lines = experiment: Cytotoxicity across the panel of human cancer cell lines (average, high-throughput assays); type: cell-based; conditions: for IC50: read-out: Cancerous Average IC50 / Average IC50 in Cancer Cell Lines
Description: as §1

NCI/ADR RES cells [17] = experiment: Calcein AM cytotoxicity assay, NCI/ADR-RES; type: cell-based; conditions: Homo sapiens, 72 h
Description: as §1

HT-29 cells = experiment: MTT cytotoxicity assay, HT-29; type: cell-based; conditions: Homo sapiens
HCT-116 cells [18] = experiment: Calcein AM cytotoxicity assay, HCT-116; type: cell-based; conditions: Homo sapiens
Description: as §1

[19] = HCT-116, Cell Titer-Glo, 72 h, read-out: IC50
[20] = NCI-H460, Calcein AM, 72 h, read-out: IC50
[21] = MCF7, Cell Titer-Glo, 72 h, read-out: IC50
[22] = DU-145, Du145, Cell Titer-Glo, 72 h, read-out: IC50
[23] = NCI-H460, Cell Titer-Glo, 72 h, read-out: IC50
[24] = NmuMG, Calcein AM, read-out: IC50
[25] = SF-268, Calcein AM, 72 h, read-out: IC50
[26] = DU-145, Du145, Calcein AM, 72 h, read-out: IC50
[27] = SK-OV-3, Calcein AM, 72 h, read-out: IC50
[28] = SK-OV-3, Cell Titer-Glo, 72 h, read-out: IC50
[29] = MCF7, Calcein AM, 72 h, read-out: IC50
[30] = NmuMG, Cell Titer-Glo, read-out: IC50
[31] = SF-268, Cell Titer-Glo, 72 h, read-out: IC50
[32] = average across eight human cancer cell lines, MTT (HT-29) values excluded
[33] = HT-29, MTT, 24 h, read-out: IC50
[34] = HCT-116, Calcein AM, 72 h, read-out: IC50

Compound: C[S+]([O-])CCCCN=C=S (racemic) [Compound 13, 1-isothiocyanato-4-(methylsulfinyl)butane]
- IC50 (HCT-116 cells [1]; [19]): 4.81 µM
- IC50 (NCI-H460 cells [2]; [20]): 13 µM
- IC50 (MCF7 cells [3]; [21]): 8.59 µM
- IC50 (Du145 cells [4]; [22]): 8.62 µM
- IC50 (NCI/ADR RES cells [5]; Cell Titer-Glo, read-out: IC50): 16.5 µM
- IC50 (Hep3B cells [6]; Cell Titer-Glo, read-out: IC50): 2.75 µM
- IC50 (Hep3B cells [7]): < 3.13 µM
- IC50 (NCI-H460 cells [8]; [23]): 10.1 µM
- IC50 [9, 24]: 5.61 µM
- IC50 (SF-268 cells [10]; [25]): 5.69 µM
- IC50 (Du145 cells [11]; [26]): 6.25 µM
- IC50 (SK-OV-3 cells [12]; [27]): 5.65 µM
- IC50 (SK-OV-3 cells [13]; [28]): 9.9 µM
- IC50 (MCF7 cells [14]; [29]): 7.28 µM
- IC50 [15, 30]: 3.2 µM
- IC50 (SF-268 cells [16]; [31]): 6.22 µM
- IC50 (human cancer cell lines; [32]): 7.61 µM
- IC50 (NCI/ADR RES cells [17]; Calcein AM, read-out: IC50): 13.1 µM
- IC50 (HT-29 cells; [33]): 46.4 µM
- IC50 (HCT-116 cells [18]; [34]): 6.13 µM

Compound: C[S+]([O-])CCCCN=C=S (stereo not drawn) [Compound 2, 1-isothiocyanato-4-(methylsulfinyl) butane, reference compound]
- IC50 (HCT-116 cells [1]; HCT-116, 72 h): 3.58 µM
- IC50 (NCI-H460 cells [2]; NCI-H460, 72 h): 8.74 µM
- IC50 (MCF7 cells [3]; MCF7, 72 h): < 3.13 µM
- IC50 (Du145 cells [4]; DU-145, 72 h): 6.1 µM
- IC50 (NCI/ADR RES cells [5]): 8.98 µM
- IC50 (Hep3B cells [6]): 4.48 µM
- IC50 (Hep3B cells [7]): 4.13 µM
- IC50 (NCI-H460 cells [8]; NCI-H460, 72 h): 5.94 µM
- IC50 [9]: 6.86 µM
- IC50 (SF-268 cells [10]; SF-268, 72 h): 11 µM
- IC50 (Du145 cells [11]; DU-145, 72 h): 5.25 µM
- IC50 (SK-OV-3 cells [12]; SK-OV-3, 72 h): 7.6 µM
- IC50 (SK-OV-3 cells [13]; SK-OV-3, 72 h): 4.67 µM
- IC50 (MCF7 cells [14]; MCF7, 72 h): 3.14 µM
- IC50 [15]: 6.59 µM
- IC50 (SF-268 cells [16]; SF-268, 72 h): 6.16 µM
- selectivity for cancer cells over NmuMG cells (human cancer cell lines): 1.3 fold
- IC50 (human cancer cell lines; Homo sapiens): 5.26 µM
- IC50 (NCI/ADR RES cells [17]): 8.89 µM
- IC50 (HT-29 cells; HT-29, 24 h): 45.2 µM
- IC50 (HCT-116 cells [18]; HCT-116, 72 h): 2.94 µM

Compound: CS(=O)(=O)CCCCN=C=S [Compound 14, 1-isothiocyanato-4-(methylsulfonyl)butane]
- IC50 (HCT-116 cells [1]; [19]): 3.29 µM
- IC50 (NCI-H460 cells [2]; [20]): 10 µM
- IC50 (MCF7 cells [3]; [21]): 2.28 µM
- IC50 (Du145 cells [4]; [22]): 4 µM
- IC50 (NCI/ADR RES cells [5]; Cell Titer-Glo, read-out: IC50): 11.1 µM
- IC50 (Hep3B cells [6]; Cell Titer-Glo, read-out: IC50): 4.48 µM
- IC50 (Hep3B cells [7]; Calcein AM, read-out: IC50): 3.46 µM
- IC50 (NCI-H460 cells [8]; [23]): 6.87 µM
- IC50 [9, 24]: 7.9 µM
- IC50 (SF-268 cells [10]; [25]): 4.72 µM
- IC50 (Du145 cells [11]; [26]): 5.24 µM
- IC50 (SK-OV-3 cells [12]; [27]): 4.84 µM
- IC50 (SK-OV-3 cells [13]; [28]): 6.99 µM
- IC50 (MCF7 cells [14]; [29]): 8.36 µM
- IC50 [15, 30]: 5.32 µM
- IC50 (SF-268 cells [16]; [31]): 3.7 µM
- IC50 (human cancer cell lines; [32]): 5.32 µM
- IC50 (NCI/ADR RES cells [17]; Calcein AM, read-out: IC50): 9.99 µM
- IC50 (HT-29 cells; [33]): 39.1 µM
- IC50 (HCT-116 cells [18]; [34]): 4.16 µM

Compound: CC(C)(C)CN=C=S [Compound 16, 1-isothiocyanato-2,2-dimethylpropane]
- IC50 (HCT-116 cells [1]; [19]): 35 µM
- IC50 (NCI-H460 cells [2]; [20]): > 50 µM
- IC50 (MCF7 cells [3]; [21]): > 50 µM
- IC50 (Du145 cells [4]; [22]): > 50 µM
- IC50 (NCI/ADR RES cells [5]; Cell Titer-Glo, read-out: IC50): > 50 µM
- IC50 (Hep3B cells [6]; Cell Titer-Glo, read-out: IC50): > 50 µM
- IC50 (Hep3B cells [7]; Calcein AM, read-out: IC50): > 50 µM
- IC50 (NCI-H460 cells [8]; [23]): 30.3 µM
- IC50 [9, 24]: 49.4 µM
- IC50 (SF-268 cells [10]; [25]): > 50 µM
- IC50 (Du145 cells [11]; [26]): > 50 µM
- IC50 (SK-OV-3 cells [12]; [27]): > 50 µM
- IC50 (SK-OV-3 cells [13]; [28]): > 50 µM
- IC50 (MCF7 cells [14]; [29]): > 50 µM
- IC50 [15, 30]: 26.8 µM
- IC50 (SF-268 cells [16]; [31]): > 50 µM
- IC50 (human cancer cell lines; [32]): > 50 µM
- IC50 (NCI/ADR RES cells [17]; Calcein AM, read-out: IC50): > 50 µM
- IC50 (HT-29 cells; [33]): > 50 µM
- IC50 (HCT-116 cells [18]; [34]): > 50 µM

Compound: S=C=NCC1CCCCC1 [Compound 18, (isothiocyanatomethyl)cyclohexane]
- IC50 (HCT-116 cells [1]; [19]): 20.9 µM
- IC50 (NCI-H460 cells [2]; [20]): 48.1 µM
- IC50 (MCF7 cells [3]; [21]): 33.3 µM
- IC50 (Du145 cells [4]; [22]): 24.4 µM
- IC50 (NCI/ADR RES cells [5]; Cell Titer-Glo, read-out: IC50): > 50 µM
- IC50 (Hep3B cells [6]; Cell Titer-Glo, read-out: IC50): 29.3 µM
- IC50 (Hep3B cells [7]; Calcein AM, read-out: IC50): 42.1 µM
- IC50 (NCI-H460 cells [8]; [23]): > 50 µM
- IC50 [9, 24]: 22.5 µM
- IC50 (SF-268 cells [10]; [25]): 15.1 µM
- IC50 (Du145 cells [11]; [26]): 18.7 µM
- IC50 (SK-OV-3 cells [12]; [27]): 29.1 µM
- IC50 (SK-OV-3 cells [13]; [28]): 33.7 µM
- IC50 (MCF7 cells [14]; [29]): > 30 µM
- IC50 [15, 30]: 14.8 µM
- IC50 (SF-268 cells [16]; [31]): 15.4 µM
- Cancerous Average IC50 / Average IC50 in Cancer Cell Lines (human cancer cell lines; [32]): 29.31^d μM
- IC50 (human cancer cell lines; [32]): 29.3 µM
- IC50 (NCI/ADR RES cells [17]; Calcein AM, read-out: IC50): > 50 µM
- IC50 (HT-29 cells; [33]): > 50 µM
- IC50 (HCT-116 cells [18]; [34]): 21.9 µM
